Test: Stability of FDC dosage forms (in words)
Assay type: physicochemical
Conditions: after 6 months storage at accelerated conditions; effect seems concentration dependent

## N=C(N)NCCC[C@H](N)C(=O)O [L-arginine]
  suppression of degradation of BI 1356 free base in FDC combinations with metformin HCl: able to suppress degradation

Reference: patent US20230338386A1, “DPP-IV INHIBITOR COMBINED WITH A FURTHER ANTIDIABETIC AGENT, TABLETS COMPRISING SUCH FORMULATIONS, THEIR USE AND PROCESS FOR THEIR PREPARATION” (Boehringer Ingelheim International GmbH, priority 2008, published 2023)
